# Test results reported in a melting point compilation (Tetko et al.).
row,SMILES,melting point [°C]
1,Nc1cnc2ccccc2n1,138 to 140
2,Cc1nc(N)nc(Cl)c1Br,189 to 191
3,O=S(=O)(Nc1cn[nH]c1)c1ccccc1F,186 to 188
4,O=Cc1c[nH]nc1-c1ccc2c(c1)OCCO2,210 to 212
5,CCC(CC)NS(=O)(=O)c1ccc(Cl)nc1,91 to 93
6,CN1CCCC1C(=O)O (centres undefined),111 to 113
7,O=C(O)CN1C(=O)C2CCCCC2C1=O (centres undefined),88 to 90
8,O=S(=O)(c1c[nH]c2ncccc12)N1CCNCC1,207 to 209
9,Nc1cnc(C2CC2)nc1,169 to 171
10,O=C(O)C1CC1(Cl)Cl (centres undefined),74 to 76
11,CCCCCc1cc(N)on1,40 to 42
12,O=C(Nc1cccs1)OCC(F)(F)F,58 to 60
13,CC(C)NS(=O)(=O)Cc1ccc(CN)cc1,148 to 150
14,S=C(Nc1ccccc1)N1CCCCC1,99 to 101
15,CS(=O)(=O)NCC1CCCNC1 (centres undefined),130 to 132
16,CC(C)(C)OC(=O)N1CCC(C(=O)O)(c2ccccc2)CC1,116 to 118
17,N#CC1(N2C(=O)C=CC2=O)CCCC1,43 to 45

row,SMILES,melting point [°C]
1,CCCn1c(C)c(C(=O)OCC)c2cc(O)ccc21,179 to 181
2,CCc1c(C)sc2[nH]c(COCC(=O)O)nc(=O)c12,193 to 195
3,c1cncc(NCc2ccco2)c1,45 to 49
4,O=c1[nH]c(CCl)nc2sc3c(c12)CCC3,230 to 238
5,COc1cc2c(cc1C=O)OC(C)C2 (centres undefined),78 to 80
6,NC(=S)CF,53 to 55
7,NCc1ccnc(N2CCCC2)n1,63 to 65
8,c1ccc(-c2cc[nH]c2)nc1,126 to 128
9,Nc1ccc2c(c1)NC(=O)CS2,218 to 222
10,CCOc1nnc(-c2ccccc2)n1-c1ccccc1,154 to 156
11,NCc1cccc(NC(=O)Cn2cccn2)c1,113 to 115
12,CC(C)(C)c1ccc(N2CCC(N)CC2)cc1,80 to 82
13,CCCC(C)C(N)C(=O)O (centres undefined),259 to 261
14,Brc1ccc(C2CNCCO2)cc1 (centres undefined),53 to 55
15,Nc1ccccc1N1C(=O)c2ccc(Br)cc2C1=O,219 to 221
16,CS(=O)(=O)CCc1ccc(N)cc1,93 to 95

# Next, values leading:
row,melting point [°C],SMILES
1,103 to 105,COC(=O)CNC(=O)c1cccc(N)c1
2,222 to 224,Nc1cc(Br)ccc1C(=O)O
3,194 to 196,NS(=O)(=O)c1cc(C(=O)O)cs1
4,163 to 165,O=C(NCCO)c1ccc(O)cc1O
5,87 to 89,O=C(O)C=NNc1ccc(F)cc1
6,153 to 155,NC(=NO)c1ccc(O)cc1Cl
7,127 to 129,Cc1cc(S(=O)(=O)Cl)ccc1OCC(=O)O
8,73 to 75,CCNC(=O)c1ccc(N)cc1
9,277 to 279,CC(=O)Nc1cc(C(=O)O)ccc1C
10,77 to 79,CC(C)c1cc(=O)oc2cc(O)ccc12
11,226 to 228,NC(=O)CCc1ccc(C(=O)O)cc1
12,128 to 130,O=C(O)c1ccc(Oc2ccc(Cl)cc2)c(F)c1
13,166 to 168,Cc1ccc(C)c(-n2cnc(O)n2)c1
14,359 to 361,O=S(=O)(O)c1ccc2[nH]cnc2c1
15,269 to 271,Cc1c(Cl)ccc2ccc(=O)[nH]c12
16,185 to 187,Cc1cc(NC(N)=O)ccc1Br
17,170 to 172,CCc1ccc(-c2ccc(C(=O)O)o2)cc1
18,102 to 104,Cc1cc(=O)oc2cc(OCCBr)ccc12
19,186 to 188,CC1Cc2ccccc2N1Cc1occc1C(=O)O (centres undefined)
20,171 to 173,Cc1ccc2nc(CO)cc(=O)n2c1
21,144 to 146,N#CCSc1cccc(C(=O)O)c1
22,128 to 129,COc1ccccc1C(=O)NC(C(=O)O)C(C)C (centres undefined)
23,170 to 172,CC1(c2ccccc2)NC(=O)N(CC(=O)O)C1=O (centres undefined)
24,117 to 119,CC(=O)N(c1cccc(C)c1)c1nc(CCl)cs1
25,162 to 164,Cc1ccc(N(C)S(=O)(=O)c2cccc(C(=O)O)c2)cc1
26,119 to 121,CC(=O)NCC(O)c1ccccc1 (centres undefined)
